Reference: BindingDB's records for doi:10.1021/acs.jmedchem.6b01247 (University of Chinese Academy of Sciences, 2016)

How the values were obtained:
[1] = Inhibition of Smo in mouse Shh Light2 cells assessed as inhibition of SAG-induced Hh pathway activity by measuring SAG-EC50 at 50 nM measured after 36 hrs by Gli-luciferase reporter gene assay (Rvb = 2.93 nM)
[2] = Inhibition of Smo in mouse Shh Light2 cells assessed as inhibition of SAG-induced Hh pathway activity by measuring SAG-EC50 at 500 nM measured after 36 hrs by Gli-luciferase reporter gene assay (Rvb = 2.93 nM)
[3] = Inhibition of Smo in mouse Shh Light2 cells assessed as inhibition of SAG-induced Hh pathway activity by measuring SAG-EC50 at 100 nM measured after 36 hrs by Gli-luciferase reporter gene assay (Rvb = 2.93 nM)

EC50 [1]: 24 nM
EC50 [2]: 137 nM
EC50 [3]: 47 nM
SMILES: Cc1ccc2c(n1)[C@H]([C@@H](C)C(=O)Nc1ccc(Cl)c(-c3nc4ccccc4n3C)c1)CC[C@H]2C
